Tests used:
[1] = tested on: ETV1, 4, and 5 in 3T3-CIC-DUX4, C2C12-CIC-DUX4 and LHCN-CIC-DUX4 cell lines; assay: RT-qPCR for CIC-DUX4 target genes in cell lines overexpressing CIC-DUX4; format: cell-based, mouse and human; settings: each CIC-DUX4 overexpressing cell line, 18 hours
Procedure: Viral supernatants were produced in 293T cells. For transducing mouse cells (3T3 and C2C12), the CIC-DUX4 expression vector was packed with pCL-Eco, and for infecting human cells (293T, LHCN-M2) with psPAX2 and pMD2.G using FUGENE 6 (Roche). Viral supernatant was collected at 48 hours and 72 hours post-transfection and applied to the cells. Two days post-infection GFP positive cells were sorted using a BD FACSAria II. Established cell lines were tested for CIC-DUX4 expression by immunofluorescence and RT-qPCR.
RNA was extracted using an RNA extraction kit (Zymo) and cDNA was made using 0.5 μg total RNA with oligo-dT primer and Verso cDNA Synthesis Kit (Thermo Scientific) following the manufacturer's instructions. qPCRs were performed by using Premix Ex Taq (Probe qPCR, Takara) or SYBR-green. Gene expression levels were normalized to that of GAPDH and analyzed with 7500 System Software using the ACT method (Applied Biosystems). RNA-seq library preparation was done with 500 ng total RNA from NCC-CDS-X1 cells treated for 4 or 24 hours with iP300w (0.3 μM) using the Swift Rapid RNA Library Kit (SwiftBioscience). 36 base paired-end sequencing was performed on an Illumina NextSeq instrument at the University of Minnesota Genomics Center. […]

[2] = tested on: NCC-CDS-X1 and Kitra-SRS cell cultures; assay: Morphology of monolayer CDS cell cultures; format: cell-based, human; settings: both CDS cell lines
Procedure: To evaluate the consequences of iP300w treatment of CDS cells, its effects on both monolayer cultures as well as 3D spheres was determined in both CDS cell lines. Inhibition of proliferation was morphologically apparent as early as 24 hours after iP300w treatment and progressed with time (FIG. 2A). Using the cell viability assay, it was determined that 0.003 μM was the lowest effective concentration on day 2 in both lines (FIG. 2B).

[3] = tested on: LCHN-Myoblast; assay: ATP assay on LCHN-Myoblast; format: cell-based, human; settings: after 3 days of treatment (FIG. 10C)
Procedure: Basal media were purchased from HyClone, fetal bovine serum (FBS) was from PeakSerum (Ps-FB3, lot 293Q16), and Glutamax (Glu) and Penicillin/Streptomycin (P/S) were from GIBCO. NCC-CDS-X1 (CIC-DUX4 sarcoma cell line, a generous gift from Tadashi Kondo) cell line was cultured in RPMI with 10% FBS, Glu and P/S, Kitra-SRS (CIC-DUX4 sarcoma cell line, a generous gift from Hidetatsu Otani), 3T3, 293T and C2C12 cell lines were cultured in DMEM/10% FBS/Glu/P/S. The immortalized human myoblast LHCN-M2 cell line was cultured in proliferation medium: F10 supplemented with 20% FBS, 2-mercaptoethanol 1× (GIBCO), 10^−9 M dexamethasone (Sigma), 10 ng/mL bFGF (Peprotech), and Glu/P/S. All cells were cultured at 37° C. in a 5% CO2 atmosphere.
Cell lines were plated in a 96 well dish (1×10^5 cells/well), and the following day were treated with iP300w or its stereoisomers. ATP assays were performed using CellTiter-Glo® Luminescent Cell Viability Assay (Promega) according to the manufacturer's instructions. Luminescence was analyzed on POLARstar Optima Microplate Reader (BMG Labtech, Offenburg, Germany). […]

[4] = tested on: Panc1, MiaPaca2, CFPac1 pancreatic cancer cells; assay: Cell viability (ATP) assay in pancreatic cancer cells; format: cell-based; settings: serial dilutions, 48 hours
Procedure: Cell lines were plated in a 96 well dish (1×10^5 cells/well), and the following day were treated with iP300w or its stereoisomers. ATP assays were performed using CellTiter-Glo® Luminescent Cell Viability Assay (Promega) according to the manufacturer's instructions. Luminescence was analyzed on POLARstar Optima Microplate Reader (BMG Labtech, Offenburg, Germany).
Pancreatic and colorectal cancer cell lines were treated with iP300w to further distinguish its specificity to CDS from general cytotoxicity. p300/CBP have been correlated with the invasive and migratory properties of pancreatic and colorectal cancers (Iyer, N. G. et al., Proceedings of the National Academy of Sciences of the United States of America 101, 7386-7391 (2004); and Paladino, D. et al, Oncotarget 7, 7253-7267 (2016)). […] This further supports the specific efficacy of iP300w against cancers bearing p300-dependent oncogenic fusion transcription factors (such as CIC-DUX4), vis-à-vis cancers that may show some degree of growth inhibition by iP300w due simply to p300-dependent proliferative pathways.

[5] = tested on: Kitra-SRS cells; assay: Immunofluorescence for Ki-67 in Kitra-SRS cells; format: cell-based, human; settings: 24 hours, 0.3 μM
Procedure: For western blot analyses, cells were lysed with RIPA buffer supplemented with protease inhibitor cocktail (Complete, Roche), and proteins were separated on 10% SDS-PAGE gels, then transferred to PVDF membranes. Antibodies were diluted in 5% skim milk in TBST and incubated overnight at 4° C. or 1 hour at RT. An appropriate secondary HRP conjugated antibody was incubated for 1 hour at RT. Membranes were then washed with TBST, and signal was visualized using Pierce ECL western blotting substrate (Thermo Scientific). For immunofluorescence, cells cultured in 96 well plates were fixed in 4% PFA for 10 min., washed twice with PBS, permeabilized with 0.3% Triton X for 30 min, and blocked with 3% BSA for 1 hour at R/T. Primary antibodies were diluted in 3% BSA and incubated o/n at 4° C. An appropriate conjugated secondary antibody was applied for 60 min at RT. Nuclei were visualized using DAPI (1:5000, Sigma). […]

Compound: CNC(=O)Cn1cc(-c2ccc3c(c2)[C@H](F)C[C@]32NC(=O)N(CC(=O)N(Cc3ccc(F)cc3)[C@@H](C)C(F)(F)F)C2=O)cn1 (single isomer, unassigned) [iP300w]
- effect on CIC-DUX4-induced ETV1, 4, and 5 [1]: reversible
- time at which inhibition of proliferation is morphologically apparent [2]: 24 hours
- concentration giving mild suppression of proliferation [3]: ≥ 0.3 µM
- effect on cell viability [4]: no significant effect on cell viability
- Ki-67 positive staining [5]: almost complete absence of Ki-67 positive staining

From patent US12383534B2, “Methods for treating cancer” (REGENTS OF THE UNIVERSITY OF MINNESOTA, priority 2021, dated 2025)
